Data as given in patent publication US8999967B2, “Tricyclic fused ring inhibitors of hepatitis C” (Presidio Pharmaceuticals, Inc., priority 2010, dated 2015).

test system: HCV 1b_Huh-Luc/Neo-ET cell line (genotype 1b replicon in Huh 7 cells); test: HCV replicon assay (luciferase readout); format: cell-based; conditions: Hepatitis C virus, HCV 1b replicon in Huh 7 cells, 72 h incubation, EC50 range class, read-out: Inhibition of HCV genotype 1b
How it was run: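 Huh 7 cells stably carrying a bicistronic genotype 1b luciferase replicon were treated in triplicate the day after plating and incubated 72 h before luciferase read-out. Signal was expressed as % of untreated control, and EC50 was fitted by four-parameter logistic and averaged over repeat determinations.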

**Q.** For O=C(N[C@@H](C(=O)N1CCC[C@H]1c1ncc(-c2ccc3oc4cc(-c5cnc([C@@H]6CCCN6C(=O)[C@H](NC(=O)OC6CCOCC6)c6ccccc6)[nH]5)c(F)cc4c(=O)c3c2)[nH]1)c1ccccc1)OC1CCOCC1 [Example 25], which EC50 is on record?
**A.** Its EC50 is less than 1 nM.

**Q.** Which EC50 does the source give for COC(=O)N[C@H](C(=O)N1CCC[C@H]1c1ncc(-c2ccc3c(c2)Oc2ccc(-c4cnc([C@@H]5CCCN5C(=O)[C@@H](NC(=O)OC)C(C)C)[nH]4)cc2C32CC2)[nH]1)C(C)C [Example 26] here?
**A.** Its EC50 is less than 1 nM.

**Q.** With COC(=O)N[C@H](C(=O)N1CCC[C@H]1c1ncc(-c2cc3oc4ccc(-c5cnc([C@@H]6CCCN6C(=O)[C@H](NC(=O)OC)c6ccccc6)[nH]5)cc4c(=O)c3cc2F)[nH]1)C(C)C [Example 27] as the compound, how does the EC50 read?
**A.** The EC50 was less than 1 nM.

**Q.** For COC(=O)N[C@H](C(=O)N1CCC[C@H]1c1ncc(-c2cc3oc4ccc(-c5cnc([C@@H]6CCCN6C(=O)[C@@H](NC(=O)OC)C6CCOCC6)[nH]5)cc4c(=O)c3cc2F)[nH]1)C(C)C [Example 28], which EC50 is on record?
**A.** Its EC50 is less than 1 nM.

**Q.** With COC(=O)N[C@H](C(=O)N1CCC[C@H]1c1ncc(-c2cc3c(cc2F)Cc2cc(-c4cnc([C@@H]5CCCN5C(=O)[C@@H](NC(=O)OC)[C@@H](C)OC)[nH]4)ccc2O3)[nH]1)C(C)C [Example 29] as the compound, how does the EC50 read?
**A.** The EC50 was less than 1 nM.
